Test results taken from patent US20120064514A1, “HIV-1-C […]” (Virco BVBA, priority 2009, published 2012).
Entries after “also recorded” stand apart in the source; their conditions may differ.

Legend:
[1] = test system: HIV-1-C recombinant virus stocks (pGEM-HIV-1-C-Δgprt-BstEII backbone); assay: Antiviral drug susceptibility testing of recombinant virus stocks, subtype C GPRT amplicon in HIV-1 subtype C backbone, MT4-eGFP cells; type: cell-based; details: for effect of RAM M184V in RT on FC: subtype C backbone, Clone 3 of Sample 3, FC with vs without 184V, FIG. 4; for ratio FCsubtype B/FCsubtype C (fold change in IC50 vs wild-type): same subtype C GPRT amplicons in subtype B vs subtype C backbone, FIG. 3-E, ratio significantly different from 1 (p<0.05) for the listed drugs
Description: (§1) An HIV subtype C backbone was designed in silico. The complete genome (12 721 bp) was divided into 4 fragments which were chemically synthesized and subsequently joined together by traditional subcloning. Gag-protease-reverse-transcriptase (GPRT) fragments from 8 patient samples infected with subtype C HIV-1 were RT-PCR amplified. The 1.7 kb PCR fragment was cloned into the HIV-1-C backbone (deleted for GPRT) using In-Fusion reagents. Full-genome clones (N ranging from 1 to 5 per patient sample) were transfected in MT4-eGFP cells where cyto-pathogenic effect (CPE), p24 and Viral Load (VL) were monitored. The resulting HIV-1-C recombinant virus stocks (RVSs) were added to MT4-eGFP cells in the presence of serial dilutions of antiretroviral drugs (PI, NNRTI, N(t)RTI) to determine the fold-change in IC50 compared to the IC50 of wild-type HIV-1 virus. Additionally, viral RNA was extracted from the HIV-1-C RVSs and submitted to an RT-PCR. The resulting GPRT amplicons were recombined into a subtype B backbone and phenotyped as described above, allowing the comparison of GPRT resistance profiles in the two backbones.
(§2) 5. Antiviral Drug Susceptibility Testing of Virus Stocks Generated with the pGEM-HIV-1-C-Δgprt-BstEII vs. the pGEM-HXB2-Δgprt-BstEII Backbone but Carrying Identical GPRT Fragments.
(§3) Fold-change values were calculated by dividing the IC50 values of the virus stocks harboring Resistance Associated Mutations (RAMs) by the IC50 values of the corresponding backbone with wild-type amplicon.

[2] = test system: recombinant virus stocks with subtype C GPRT in pGEM-HXB2-Δgprt-BstEII (subtype B) backbone; assay: Antiviral drug susceptibility testing of recombinant virus stocks, subtype C GPRT amplicon in HIV-1 subtype B backbone, MT4-eGFP cells; type: cell-based; details: Clone 3 of Sample 3, FC with vs without 184V, FIG. 4
Description: as §1
In contrast to the In-Fusion strategy for the subtype C backbone, a homologous recombination event strategy was used for the subtype B backbone to generate infectious virus. Here the BstEII-linearized pGEM-HXB2Δgprt-BstEII backbone was co-transfected with the 1.8 kb GPRT fragment in an MT4 cell line, resulting in a full-genome infectious virus.
as §2, §3

SMILES | effect of RAM M184V in RT on FC [1] | effect of RAM M184V in RT on FC [2] | ratio FCsubtype B/FCsubtype C (fold change in IC50 vs wild-type) [1]
Nc1nc(NC2CC2)c2ncn([C@H]3C=C[C@@H](CO)C3)c2n1 [ABC] | not significantly affected | not significantly affected | 
Cc1cn([C@H]2C[C@H](N=[N+]=[N-])[C@@H](CO)O2)c(=O)[nH]c1=O [AZT] | re-sensitizing effects; also recorded: decreases the FC | re-sensitizing effects; also recorded: decreases the FC | 
Cc1cc(C#N)cc(C)c1Oc1nc(Nc2ccc(C#N)cc2)nc(N)c1Br [ETR, etravirine] |  |  | 0.67
Nc1nc(=O)n([C@@H]2CS[C@H](CO)O2)cc1F [FTC, emtricitabine] | increase in FC | increase in FC | 0.50
CC(C)OC(=O)OCOP(=O)(CO[C@H](C)Cn1cnc2c(N)ncnc21)OCOC(=O)OC(C)C.O=C(O)/C=C/C(=O)O [TDF] | decreases the FC | decreases the FC | 
Cc1cn([C@H]2C=C[C@@H](CO)O2)c(=O)[nH]c1=O [d4T] | decreases the FC | decreases the FC | 
CC(C)CN(C[C@@H](O)[C@H](Cc1ccccc1)NC(=O)O[C@H]1CO[C@H]2OCC[C@H]21)S(=O)(=O)c1ccc(N)cc1 [darunavir] |  |  | 1.78
O=c1[nH]cnc2c1ncn2[C@H]1CC[C@@H](CO)O1 [ddI, didanosine] | not significantly affected | not significantly affected | 
Cc1cccc(C)c1OCC(=O)N[C@@H](Cc1ccccc1)[C@@H](O)C[C@H](Cc1ccccc1)NC(=O)[C@H](C(C)C)N1CCCNC1=O [lopinavir] |  |  | 1.86
Cc1ccnc2c1NC(=O)c1cccnc1N2C1CC1 [nevirapine] |  |  | 1.61
